Assay results: US5886026A, “Anti-angiogenic compositions and methods of use” (priority 1994, dated 1999)

Tests used:
c-fos = c-fos expression in chondrocytes (Northern blot); type: cell-based, bovine; conditions: 10^-6 to 10^-8 M
Procedure: The fos and collagenase mRNA can be detected using the respective cDNA probes and analyzed by Northern blot analysis.
Human recombinant TNFα was dissolved in phosphate buffered saline (PBS) with 0.1% bovine serum albumin (BSA). Total RNA from bovine articular chondrocytes was isolated by the acidified guanidine isothiocyanate method and the levels of c-fos mRNA determined by Northern blot analysis. Denatured RNA samples (12 μg) were analyzed by gel electrophoresis in a denaturing 1% agarose gel, transferred to a nylon membrane (Bio-Rad), cross-linked with an ultraviolet cross-linker (Stratagene UV stratalinker 1800), and hybridized with ^32 P-labeled rat c-fos DNA. mRNA for tubulin and total RNA were used as controls. To determine tubulin mRNA, the blots described above were subsequently stripped of DNA and re-probed with ^32 P-labeled rat P-tubulin cDNA. This experimented was conducted three times and the data collated.

synoviocytes = assay: 3H-Thymidine incorporation into synoviocytes; type: cell-based
Procedure: At these times, […] of ^3 H-thymidine was added to the cell culture and incubated for 2 hours at 37° C. The cells were placed through a cell harvester, washed through a filter, the filters were cut, and the amount of radiation contained in the filter sections determined. Once the amount of thymidine incorporated into the cells was ascertained, it was used to determine the rate of cell proliferation. This experiment was repeated three times and the data collated together.

[1] = Release from ELVAX:poly-l-lactic acid microspheres, 18 hours tumbling at 37° C.; type: physicochemical
neutrophils [2] = assay: Neutrophil superoxide anion generation; type: cell-based, human; conditions: 28 μM
Procedure: (§1) All experiments that studied neutrophil responses to crystals or zymosan in the presence of paclitaxel were performed using plasma opsonized CPPD or zymosan. Opsonization of crystals or zymosan was done with 50% heparinized plasma at a concentration of 75 mg of CPPD or 12 mg of zymosan per ml of 50% plasma. Crystals or zymosan were incubated with plasma for 30 min. at 37° C. and then washed in excess HBSS.
Superoxide anion concentrations were measured using the superoxide dismutase inhibitable reduction of cytochrome c assay. Briefly, 25 mg of crystals or 0.5 mg of zymosan was placed in a 1.5 ml capped Eppendorf tube and warmed to 37° C. 0.5 ml of cells at 37° C. were added together with ferricytochrome c (final concentration 1.2 mg/ml) and the cells were activated by shaking the capped tubes. […] Control tubes were set up under the same conditions with the inclusion of superoxide dismutase at 600 units per ml.

in vitro = conditions: human, neutrophils
Procedure: Neutrophils were prepared from freshly collected human citrated whole blood. Briefly, 400 ml of blood were mixed with 80 ml of 4% dextran T500 (Pharmacia LKB, Biotechnology AB Uppsala, Sweden) in HBSS and allowed to settle for 1 h. Plasma was collected continuously and 5 ml applied to 5 ml of Ficoll Paque (Pharmacia) in 15 ml polypropylene tubes (Coming, N.Y.). Following centrifugation at 500×g for 30 min, the neutrophil pellets were washed free of erythrocytes by 20 s of hypotonic shock. Neutrophils were resuspended in HBSS, kept on ice and used for experiments within 3 h. Neutrophil viability and purity was always greater than 90%.
Cells were incubated for 20 minutes at 33° C. then for 10 minutes at 37° C. before addition to crystals or zymosan.

neutrophils [3] = assay: Neutrophil degranulation, myeloperoxidase release; type: cell-based, human; conditions: 28 μM, CPPD
Procedure: as §1
One and a half milliliter Eppendorf tubes containing either 25 mg of CPPD or 1 mg of zymosan were preheated to 37° C. 0.5 ml of cells at 37° C. were added followed by vigorous shaking to initiate the reactions.
Myeloperoxidase (MPO) activity was measured by the increase in absorbance at 450 nm that accompanies the oxidation of dianisidine. 7.8 mg of dianisidine was dissolved in 100 ml of 0.1M citrate buffer, pH 5.5 at […] by sonication. To a 1 ml cuvette, 0.89 mL of the dianisidine solution was added, followed by 50 μl of 1% Triton×100, 10 μl of a 0.05% hydrogen peroxide in water solution and 50 μl of crystal-cell supernatant.

CC(=O)O[C@H]1C(=O)[C@@]2(C)[C@H]([C@H](OC(=O)c3ccccc3)[C@]3(O)C[C@H](OC(=O)[C@H](O)[C@@H](NC(=O)c4ccccc4)c4ccccc4)C(C)=C1C3(C)C)[C@]1(OC(C)=O)CO[C@@H]1C[C@@H]2O [paclitaxel]
total RNA and tubulin expression (c-fos): similarly unaffected
c-fos expression (c-fos; TNF stimulated): does not alter c-fos expression at any concentration
minimal effective concentration (synoviocytes; 6 or 24 hours, read-out: lowest concentration inhibiting 3H-thymidine incorporation): ≤ 0.01 µM
inhibition of thymidine incorporation, high vs low concentrations (synoviocytes; 6 hours): no significant difference
inhibition of thymidine incorporation at low concentration (synoviocytes; 24 hours, 10^-8 M): some of the effect was lost at lower concentrations of the drug (10^-8 M), but was still substantially lower than that seen in control animals
released from the microspheres ([1]; fluorescence): 6%
released from the microspheres ([1]; uv/vis): 10.3%
superoxide anion production (neutrophils [2]; CPPD): decrease in the amount of superoxide generated at all times
superoxide anion production (neutrophils [2]; zymosan): less dramatic than the inhibition of CPPD activation but was significant at all times
cytotoxicity at 1 h, 46 µM (in vitro): < 5%
myeloperoxidase release (neutrophils [3]): significantly inhibited CPPD induced myeloperoxidase release at all times
